Data from article PMC3997483, “Aminostyrylbenzofuran Directly Reduces Oligomeric Amyloid-β and Reverses Cognitive Deficits in Alzheimer Transgenic Mice” (PLoS ONE, 2014).

System: SD rats
Assay: 2-week repeated oral dose toxicity study
Format: in vivo
Conditions: for Abnormal gross findings of necropsy (changed animals / total) / Basophils / Body Weight (at necropsy) / Brain weight / CH / CHCM / Eosinophils / HDW / Heart weight / Hematocrit / Hemoglobin / LUC / Left adrenal weight / Left kidney weight / Left testis weight / Liver weight / Lung weight / Lympocytes / MCH / MCHC / MCV / MPV / Monocytes / Mortality (dead animals / total number of animals) / Neutrophils / Platelet / RBC / RDW / Rate body weight / brain / Rate body weight / heart / Rate body weight / left adrenal / Rate body weight / left kidney / Rate body weight / left testis / Rate body weight / liver / Rate body weight / lung / Rate body weight / right adrenal / Rate body weight / right kidney / Rate body weight / right testis / Rate body weight / spleen / Rate body weight / thymus / Retic / Right adrenal weight / Right kidney weight / Right testis weight / Spleen weight / Symptomatic signs / Thymus weight / WBC: 2 weeks
Method: KMS88009 was orally administered once a day by gavage for 14 consecutive days at dose level of 0 (vehicle), 100, 300 and 1,000 mg/kg (n = 5 per group). […] Organs were collected at necropsy; adrenal, kidney, thymus, spleen, heart, lung, liver, testis and brain. The absolute organ weights were measured and the organs-to-body weight ratios were calculated. Blood samples for hematological evaluation were collected from vein of animals under ether anesthesia. Food was withheld overnight before necropsy and blood collections. EDTA was used as an anticoagulant for hematology samples. White blood cell (WBC), red blood cell (RBC), hemoglobin concentration (HGB), hematocrit (HCT), mean corpuscular volume (MCV), mean corpuscular hemoglobin (MCH), mean corpuscular hemoglobin concentration (MCHC), cell hemoglobin concentration mean (CHCM), cell hemoglobin (CH), red cell distribution width (RDW), hemoglobin distribution width (HDW), platelet count (PLT), mean platelet volume (MPV) and reticulocyte were measured by a hematological autoanalyzer (ADVIA 120, Bayer, USA). To get the serum for biochemical analyses, blood samples in a separation tube were centrifuged at 4,000 rpm for 10 min on the day of necropsy. The serum was kept frozen at -70°C until analysis. Sodium citrate was used as an anticoagulant for biochemical analyses. Serum biochemical parameters including aspartate aminotransferase (AST), alanine aminotransferase (ALT), alkaline phosphatase (ALP), total bilirubin (T-Bil), albumin, total protein (TP), albumin/globulin ratio (A/G ratio), glucose, total cholesterol (CHO), triglyceride (TG), lactate dehydrogenase (LDH), creatine kinase (CK), blood urea nitrogen (BUN), creatinine (CRE), blood urea nitrogen/creatinine ratio (B/C ratio), Na^+, K^+ and Cl^- were evaluated by an autoanalyzer (Shimadzu CL-7200, Shimadzu Co., Japan).
All data for single and 2-week repeated oral dose toxicity studies were expressed as the mean ± SD Difference between control and treated groups were evaluated with one-way analysis of variance (ANOVA) followed by Dunnett's test. Value P<0.05 was taken as being statistically significant. Statistical analyses were performed using GraphPad Prism software (USA).

SMILES: COc1ccc2cc(C=Cc3ccc(N(C)C)cc3)oc2c1 [KMS88009, 6-methoxy-2-(4-dimethylaminostyryl) benzofuran]
- no-observed-adverse-effect-level (SD rats, 2-week repeated oral administration): over 1,000 mg/kg
- Abnormal gross findings of necropsy (changed animals / total) (rats PO 100 mg/kg/day): 0 / 5
- Basophils (rats PO 100 mg/kg/day): 0.02 ± 0.01 x10^3/μL
- Body Weight (at necropsy) (rats PO 100 mg/kg/day): 316.188 ± 16.093 g
- Brain weight (rats PO 100 mg/kg/day): 1.948 ± 0.032 g
- CH (rats PO 100 mg/kg/day): 20.3 ± 0.4 pg
- CHCM (rats PO 100 mg/kg/day): 34.0 ± 0.4 g/dL
- Eosinophils (rats PO 100 mg/kg/day): 0.07 ± 0.08 x10^3/μL
- HDW (rats PO 100 mg/kg/day): 2.22 ± 0.08 g/dL
- Heart weight (rats PO 100 mg/kg/day): 1.067 ± 0.098 g
- Hematocrit (rats PO 100 mg/kg/day): 43.2 ± 2.6%
- Hemoglobin (rats PO 100 mg/kg/day): 14.3 ± 1.0 g/dL
- LUC (rats PO 100 mg/kg/day): 0.03 ± 0.02 x10^3/μL
- Left adrenal weight (rats PO 100 mg/kg/day): 0.027 ± 0.005 g
- Left kidney weight (rats PO 100 mg/kg/day): 1.279 ± 0.083 g
- Left testis weight (rats PO 100 mg/kg/day): 1.440 ± 0.114 g
- Liver weight (rats PO 100 mg/kg/day): 10.988 ± 0.881 g
- Lung weight (rats PO 100 mg/kg/day): 1.212 ± 0.077 g
- Lympocytes (rats PO 100 mg/kg/day): 6.64 ± 1.79 x10^3/μL
- MCH (rats PO 100 mg/kg/day): 19.8 ± 0.5 pg
- MCHC (rats PO 100 mg/kg/day): 33.1 ± 0.5 g/dL
- MCV (rats PO 100 mg/kg/day): 59.7 ± 1.3 fL
- MPV (rats PO 100 mg/kg/day): 7.66 ± 0.2 fL
- Monocytes (rats PO 100 mg/kg/day): 0.12 ± 0.03 x10^3/μL
- Mortality (dead animals / total number of animals) (rats PO 100 mg/kg/day): 0 / 5
- Neutrophils (rats PO 100 mg/kg/day): 1.74 ± 0.68 x10^3/μL
- Platelet (rats PO 100 mg/kg/day): 1283 ± 239 x10^3/μL
- RBC (rats PO 100 mg/kg/day): 7.25 ± 0.46 x10^6/μL
- RDW (rats PO 100 mg/kg/day): 12.0 ± 0.3%
- Rate body weight / brain (rats PO 100 mg/kg/day): 0.617 ± 0.026%
- Rate body weight / heart (rats PO 100 mg/kg/day): 0.337 ± 0.024%
- Rate body weight / left adrenal (rats PO 100 mg/kg/day): 0.009 ± 0.002%
- Rate body weight / left kidney (rats PO 100 mg/kg/day): 0.404 ± 0.009%
- Rate body weight / left testis (rats PO 100 mg/kg/day): 0.456 ± 0.036%
- Rate body weight / liver (rats PO 100 mg/kg/day): 3.473 ± 0.154%
- Rate body weight / lung (rats PO 100 mg/kg/day): 0.384 ± 0.031%
- Rate body weight / right adrenal (rats PO 100 mg/kg/day): 0.008 ± 0.001%
- Rate body weight / right kidney (rats PO 100 mg/kg/day): 0.414 ± 0.026%
- Rate body weight / right testis (rats PO 100 mg/kg/day): 0.459 ± 0.042%
- Rate body weight / spleen (rats PO 100 mg/kg/day): 0.230 ± 0.048%
- Rate body weight / thymus (rats PO 100 mg/kg/day): 0.205 ± 0.022%
- Retic (rats PO 100 mg/kg/day): 324.8 ± 18.9 ^* x10^3/μL
- Right adrenal weight (rats PO 100 mg/kg/day): 0.025 ± 0.002 g
- Right kidney weight (rats PO 100 mg/kg/day): 1.310 ± 0.101 g
- Right testis weight (rats PO 100 mg/kg/day): 1.450 ± 0.133 g
- Spleen weight (rats PO 100 mg/kg/day): 0.731 ± 0.188 g
- Symptomatic signs (rats PO 100 mg/kg/day): -
- Thymus weight (rats PO 100 mg/kg/day): 0.649 ± 0.073 g
- WBC (rats PO 100 mg/kg/day): 8.62 ± 1.70 x10^3/μL
- Body weight (rats PO 100 mg/kg/day, day 1): 227.6 ± 7.8 g
- Body weight (rats PO 100 mg/kg/day, day 4): 253.1 ± 7.0 g
- Body weight (rats PO 100 mg/kg/day, day 8): 297.2 ± 9.3 g
- Body weight (rats PO 100 mg/kg/day, day 11): 321.2 ± 13.1 g
- Body weight (rats PO 100 mg/kg/day, day 14): 344.4 ± 17.1 g
- Abnormal gross findings of necropsy (changed animals / total) (rats PO 300 mg/kg/day): 0 / 5
- Basophils (rats PO 300 mg/kg/day): 0.01 ± 0.01 x10^3/μL
- Body Weight (at necropsy) (rats PO 300 mg/kg/day): 312.382 ± 14.169 g
- Brain weight (rats PO 300 mg/kg/day): 1.680 ± 0.211 g
- CH (rats PO 300 mg/kg/day): 20.4 ± 0.7 pg
- CHCM (rats PO 300 mg/kg/day): 34.2 ± 0.3 g/dL
- Eosinophils (rats PO 300 mg/kg/day): 0.03 ± 0.01 x10^3/μL
- HDW (rats PO 300 mg/kg/day): 2.28 ± 0.12 g/dL
- Heart weight (rats PO 300 mg/kg/day): 1.002 ± 0.038 g
- Hematocrit (rats PO 300 mg/kg/day): 41.4 ± 1.9%
- Hemoglobin (rats PO 300 mg/kg/day): 13.9 ± 0.7 g/dL
- LUC (rats PO 300 mg/kg/day): 0.02 ± 0.01 x10^3/μL
- Left adrenal weight (rats PO 300 mg/kg/day): 0.026 ± 0.004 g
- Left kidney weight (rats PO 300 mg/kg/day): 1.237 ± 0.082 g
- Left testis weight (rats PO 300 mg/kg/day): 1.515 ± 0.189 g
- Liver weight (rats PO 300 mg/kg/day): 10.601 ± 0.687 g
- Lung weight (rats PO 300 mg/kg/day): 1.214 ± 0.128 g
- Lympocytes (rats PO 300 mg/kg/day): 3.98 ± 0.96 x10^3/μL
- MCH (rats PO 300 mg/kg/day): 20.0 ± 0.6 pg
- MCHC (rats PO 300 mg/kg/day): 33.4 ± 0.4 g/dL
- MCV (rats PO 300 mg/kg/day): 59.7 ± 1.5 fL
- MPV (rats PO 300 mg/kg/day): 7.84 ± 0.4 fL
- Monocytes (rats PO 300 mg/kg/day): 0.08 ± 0.02 x10^3/μL
- Mortality (dead animals / total number of animals) (rats PO 300 mg/kg/day): 0 / 5
- Neutrophils (rats PO 300 mg/kg/day): 0.84 ± 0.21 x10^3/μL
- Platelet (rats PO 300 mg/kg/day): 1309 ± 50 x10^3/μL
- RBC (rats PO 300 mg/kg/day): 6.93 ± 0.26 x10^6/μL
- RDW (rats PO 300 mg/kg/day): 11.9 ± 0.4%
- Rate body weight / brain (rats PO 300 mg/kg/day): 0.537 ± 0.059%
- Rate body weight / heart (rats PO 300 mg/kg/day): 0.321 ± 0.011%
- Rate body weight / left adrenal (rats PO 300 mg/kg/day): 0.008 ± 0.001%
- Rate body weight / left kidney (rats PO 300 mg/kg/day): 0.396 ± 0.020%
- Rate body weight / left testis (rats PO 300 mg/kg/day): 0.487 ± 0.075%
- Rate body weight / liver (rats PO 300 mg/kg/day): 3.393 ± 0.133%
- Rate body weight / lung (rats PO 300 mg/kg/day): 0.389 ± 0.037%
- Rate body weight / right adrenal (rats PO 300 mg/kg/day): 0.008 ± 0.001%
- Rate body weight / right kidney (rats PO 300 mg/kg/day): 0.406 ± 0.008%
- Rate body weight / right testis (rats PO 300 mg/kg/day): 0.455 ± 0.023%
- Rate body weight / spleen (rats PO 300 mg/kg/day): 0.201 ± 0.037%
- Rate body weight / thymus (rats PO 300 mg/kg/day): 0.196 ± 0.036%
- Retic (rats PO 300 mg/kg/day): 277.8 ± 39.6 x10^3/μL
- Right adrenal weight (rats PO 300 mg/kg/day): 0.025 ± 0.004 g
- Right kidney weight (rats PO 300 mg/kg/day): 1.266 ± 0.035 g
- Right testis weight (rats PO 300 mg/kg/day): 1.420 ± 0.086 g
- Spleen weight (rats PO 300 mg/kg/day): 0.629 ± 0.130 g
- Symptomatic signs (rats PO 300 mg/kg/day): -
- Thymus weight (rats PO 300 mg/kg/day): 0.613 ± 0.115 g
- WBC (rats PO 300 mg/kg/day): 4.95 ± 1.05 x10^3/μL
- Body weight (rats PO 300 mg/kg/day, day 1): 227.8 ± 7.1 g
- Body weight (rats PO 300 mg/kg/day, day 4): 250.5 ± 9.9 g
- Body weight (rats PO 300 mg/kg/day, day 8): 294.2 ± 14.6 g
